Test results taken from PubChem BioAssay (NCI).
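1) Cells in 96-well plates. 2) Compound, 48 h, 5 concentrations. 3) Linear interpolation between surrounding doses. 4) Unreached endpoint = highest concentration. TGI denotes the concentration required for complete inhibition of growth.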

Experiments:
Test in all cases: NCI anticancer screen, dose series, 48 h
786-0 renal = tested on: 786-0 renal
A498 renal = tested on: A498 renal
A549 NSCLC = tested on: A549 NSCLC
ACHN renal = tested on: ACHN renal
BT-549 breast = tested on: BT-549 breast
CAKI-1 renal = tested on: CAKI-1 renal
CCRF-CEM leukemia = tested on: CCRF-CEM leukemia
COLO 205 colon = tested on: COLO 205 colon
DU-145 prostate = tested on: DU-145 prostate
EKVX NSCLC = tested on: EKVX NSCLC
HCC-2998 colon = tested on: HCC-2998 colon
HCT-116 colon = tested on: HCT-116 colon
HCT-15 colon = tested on: HCT-15 colon
HL-60(TB) leukemia = tested on: HL-60(TB) leukemia
HOP-62 NSCLC = tested on: HOP-62 NSCLC
HOP-92 NSCLC = tested on: HOP-92 NSCLC
HS 578T breast = tested on: HS 578T breast
HT29 colon = tested on: HT29 colon
IGROV1 ovarian = tested on: IGROV1 ovarian
K-562 leukemia = tested on: K-562 leukemia
KM12 colon = tested on: KM12 colon
LOX IMVI melanoma = tested on: LOX IMVI melanoma
M14 melanoma = tested on: M14 melanoma
MALME-3M melanoma = tested on: MALME-3M melanoma
MCF7 breast = tested on: MCF7 breast
MDA-MB-435 = tested on: MDA-MB-435
MDA-N = tested on: MDA-N
MOLT-4 leukemia = tested on: MOLT-4 leukemia
NCI-H226 lung = tested on: NCI-H226 lung
NCI-H23 lung = tested on: NCI-H23 lung
NCI-H460 lung = tested on: NCI-H460 lung
NCI-H522 lung = tested on: NCI-H522 lung
NCI/ADR-RES ovarian = tested on: NCI/ADR-RES ovarian
OVCAR-3 ovarian = tested on: OVCAR-3 ovarian
OVCAR-4 ovarian = tested on: OVCAR-4 ovarian
OVCAR-5 ovarian = tested on: OVCAR-5 ovarian
OVCAR-8 ovarian = tested on: OVCAR-8 ovarian
PC-3 prostate = tested on: PC-3 prostate
RPMI-8226 leukemia = tested on: RPMI-8226 leukemia
RXF 393 renal = tested on: RXF 393 renal
SF-268 CNS = tested on: SF-268 CNS
SF-295 CNS = tested on: SF-295 CNS
SF-539 CNS = tested on: SF-539 CNS
SK-MEL-28 melanoma = tested on: SK-MEL-28 melanoma
SK-MEL-5 melanoma = tested on: SK-MEL-5 melanoma
SN12C renal = tested on: SN12C renal
SNB-19 CNS = tested on: SNB-19 CNS
SNB-75 CNS = tested on: SNB-75 CNS
SR leukemia = tested on: SR leukemia
SW-620 colon = tested on: SW-620 colon
T-47D breast = tested on: T-47D breast
TK-10 renal = tested on: TK-10 renal
U251 CNS = tested on: U251 CNS
UACC-257 melanoma = tested on: UACC-257 melanoma
UACC-62 melanoma = tested on: UACC-62 melanoma
UO-31 renal = tested on: UO-31 renal
SK-MEL-2 melanoma = tested on: SK-MEL-2 melanoma
SK-OV-3 ovarian = tested on: SK-OV-3 ovarian

In the case of `Cc1ccc(C)c2c1C/C(=C\c1ccccc1C(=O)O)C2=O`, the TGI (786-0 renal) is reported as > 100 µM, the TGI (A498 renal) is reported as > 100 µM and the TGI (A549 NSCLC) is reported as > 100 µM. For the same molecule, the TGI (ACHN renal) was > 100 µM, the TGI (BT-549 breast) was > 100 µM and the TGI (CAKI-1 renal) was > 100 µM. For the same molecule, the TGI (CCRF-CEM leukemia) was > 100 µM, the TGI (COLO 205 colon) was > 100 µM and the TGI (DU-145 prostate) was > 100 µM. The TGI (EKVX NSCLC) was > 100 µM, the TGI (HCC-2998 colon) was > 100 µM and the TGI (HCT-116 colon) was > 100 µM. The TGI (HCT-15 colon) was > 100 µM, the TGI (HL-60(TB) leukemia) was > 100 µM and the TGI (HOP-62 NSCLC) was > 100 µM. For the same molecule, the TGI (HOP-92 NSCLC) was > 100 µM, the TGI (HS 578T breast) was > 100 µM and the TGI (HT29 colon) was > 100 µM. The TGI (IGROV1 ovarian) was > 100 µM, the TGI (K-562 leukemia) was > 100 µM and the TGI (KM12 colon) was > 100 µM. For the same molecule, the TGI (LOX IMVI melanoma) was > 100 µM, the TGI (M14 melanoma) was > 100 µM and the TGI (MALME-3M melanoma) was > 100 µM. For the same molecule, the TGI (MCF7 breast) was > 100 µM, the TGI (MDA-MB-435) was > 100 µM and the TGI (MDA-N) was > 100 µM. The TGI (MOLT-4 leukemia) was > 100 µM, the TGI (NCI-H226 lung) was 80.5 µM and the TGI (NCI-H23 lung) was > 100 µM. For the same molecule, the TGI (NCI-H460 lung) was > 100 µM, the TGI (NCI-H522 lung) was > 100 µM and the TGI (NCI/ADR-RES ovarian) was > 100 µM. The TGI (OVCAR-3 ovarian) was > 100 µM, the TGI (OVCAR-4 ovarian) was > 100 µM and the TGI (OVCAR-5 ovarian) was > 100 µM. The TGI (OVCAR-8 ovarian) was > 100 µM, the TGI (PC-3 prostate) was > 100 µM and the TGI (RPMI-8226 leukemia) was > 100 µM. For the same molecule, the TGI (RXF 393 renal) was > 100 µM, the TGI (SF-268 CNS) was > 100 µM and the TGI (SF-295 CNS) was > 100 µM. For the same molecule, the TGI (SF-539 CNS) was 97.7 µM, the TGI (SK-MEL-28 melanoma) was > 100 µM and the TGI (SK-MEL-5 melanoma) was > 100 µM. For the same molecule, the TGI (SN12C renal) was > 100 µM, the TGI (SNB-19 CNS) was > 100 µM and the TGI (SNB-75 CNS) was > 100 µM. The TGI (SR leukemia) was > 100 µM, the TGI (SW-620 colon) was > 100 µM and the TGI (T-47D breast) was > 100 µM. The TGI (TK-10 renal) was > 100 µM, the TGI (U251 CNS) was > 100 µM and the TGI (UACC-257 melanoma) was > 100 µM. For the same molecule, the TGI (UACC-62 melanoma) was > 100 µM and the TGI (UO-31 renal) was > 100 µM.

`COc1cc(N2C(=O)C(=O)C3(CCCCC3)C2=O)cc(OC)c1OC` was tested, and the TGI (786-0 renal) was > 100 µM, the TGI (A549 NSCLC) was > 100 µM and the TGI (ACHN renal) was > 100 µM. The TGI (BT-549 breast) was > 100 µM, the TGI (CAKI-1 renal) was > 100 µM and the TGI (CCRF-CEM leukemia) was > 100 µM. For the same molecule, the TGI (COLO 205 colon) was > 100 µM, the TGI (DU-145 prostate) was > 100 µM and the TGI (EKVX NSCLC) was > 100 µM. For the same molecule, the TGI (HCC-2998 colon) was > 100 µM, the TGI (HCT-116 colon) was > 100 µM and the TGI (HCT-15 colon) was > 100 µM. For the same molecule, the TGI (HL-60(TB) leukemia) was > 100 µM, the TGI (HOP-62 NSCLC) was > 100 µM and the TGI (HT29 colon) was > 100 µM. The TGI (K-562 leukemia) was > 100 µM, the TGI (KM12 colon) was > 100 µM and the TGI (LOX IMVI melanoma) was > 100 µM. The TGI (M14 melanoma) was > 100 µM, the TGI (MALME-3M melanoma) was > 100 µM and the TGI (MCF7 breast) was > 100 µM. The TGI (MDA-MB-435) was > 100 µM, the TGI (MDA-N) was > 100 µM and the TGI (MOLT-4 leukemia) was > 100 µM. The TGI (NCI-H226 lung) was > 100 µM, the TGI (NCI-H23 lung) was > 100 µM and the TGI (NCI-H522 lung) was > 100 µM. The TGI (NCI/ADR-RES ovarian) was > 100 µM, the TGI (OVCAR-3 ovarian) was > 100 µM and the TGI (OVCAR-4 ovarian) was > 100 µM. For the same molecule, the TGI (OVCAR-5 ovarian) was > 100 µM, the TGI (OVCAR-8 ovarian) was > 100 µM and the TGI (PC-3 prostate) was > 100 µM. For the same molecule, the TGI (RPMI-8226 leukemia) was > 100 µM, the TGI (RXF 393 renal) was > 100 µM and the TGI (SF-268 CNS) was > 100 µM. The TGI (SF-295 CNS) was > 100 µM, the TGI (SF-539 CNS) was > 100 µM and the TGI (SK-MEL-2 melanoma) was > 100 µM. For the same molecule, the TGI (SK-MEL-28 melanoma) was > 100 µM, the TGI (SK-MEL-5 melanoma) was > 100 µM and the TGI (SK-OV-3 ovarian) was > 100 µM. For the same molecule, the TGI (SN12C renal) was > 100 µM, the TGI (SNB-19 CNS) was > 100 µM and the TGI (SNB-75 CNS) was > 100 µM. The TGI (SR leukemia) was > 100 µM, the TGI (SW-620 colon) was > 100 µM and the TGI (T-47D breast) was > 100 µM. The TGI (TK-10 renal) was > 100 µM, the TGI (U251 CNS) was > 100 µM and the TGI (UACC-257 melanoma) was > 100 µM. The TGI (UACC-62 melanoma) was > 100 µM and the TGI (UO-31 renal) was > 100 µM.

Work on `CC(=O)Oc1ccc2[nH]c3c(C)c4cccc-4ccc3c2c1` yielded a TGI (786-0 renal) of 3.36 µM, a TGI (A498 renal) of 5.53 µM and a TGI (A549 NSCLC) of 4.7 µM. For the same molecule, the TGI (ACHN renal) was 3.33 µM, the TGI (BT-549 breast) was 5.37 µM and the TGI (CAKI-1 renal) was 3.41 µM. The TGI (DU-145 prostate) was 12.7 µM, the TGI (EKVX NSCLC) was 4.21 µM and the TGI (HCC-2998 colon) was 5.05 µM. For the same molecule, the TGI (HCT-116 colon) was 4.31 µM, the TGI (HCT-15 colon) was 5 µM and the TGI (HL-60(TB) leukemia) was 6.87 µM. For the same molecule, the TGI (HOP-62 NSCLC) was 4.8 µM, the TGI (HOP-92 NSCLC) was 4.17 µM and the TGI (HS 578T breast) was 7.74 µM. For the same molecule, the TGI (HT29 colon) was 4.18 µM, the TGI (IGROV1 ovarian) was 3.2 µM and the TGI (K-562 leukemia) was 11.5 µM. The TGI (KM12 colon) was 5.47 µM, the TGI (LOX IMVI melanoma) was 4.4 µM and the TGI (M14 melanoma) was 4.21 µM. For the same molecule, the TGI (MALME-3M melanoma) was 3.63 µM, the TGI (MCF7 breast) was 10.7 µM and the TGI (MDA-MB-435) was 3.81 µM. It also gave a TGI (MDA-N) of 4.93 µM, a TGI (MOLT-4 leukemia) of 9.82 µM and a TGI (NCI-H226 lung) of 3.11 µM. For the same molecule, the TGI (NCI-H23 lung) was 3.96 µM, the TGI (NCI-H460 lung) was 10.3 µM and the TGI (NCI-H522 lung) was 3.86 µM. The TGI (NCI/ADR-RES ovarian) was 5.33 µM, the TGI (OVCAR-3 ovarian) was 3.64 µM and the TGI (OVCAR-4 ovarian) was 3.5 µM. It also gave a TGI (OVCAR-5 ovarian) of 4.14 µM, a TGI (OVCAR-8 ovarian) of 4.63 µM and a TGI (PC-3 prostate) of 3.37 µM. The TGI (RPMI-8226 leukemia) was 11 µM, the TGI (RXF 393 renal) was 3.78 µM and the TGI (SF-268 CNS) was 4.19 µM. The TGI (SF-295 CNS) was 4.32 µM, the TGI (SK-MEL-2 melanoma) was 3.66 µM and the TGI (SK-MEL-28 melanoma) was 4.47 µM. For the same molecule, the TGI (SK-MEL-5 melanoma) was 3.95 µM, the TGI (SK-OV-3 ovarian) was 4.28 µM and the TGI (SN12C renal) was 4.49 µM. The TGI (SNB-19 CNS) was 3.69 µM, the TGI (SR leukemia) was 34.6 µM and the TGI (SW-620 colon) was 10.7 µM. It also gave a TGI (T-47D breast) of 8.22 µM, a TGI (TK-10 renal) of 3.57 µM and a TGI (UACC-257 melanoma) of 4.07 µM. It also gave a TGI (UACC-62 melanoma) of 3.42 µM and a TGI (UO-31 renal) of 3.19 µM.
